Here are results for eleven molecules from PubChem BioAssay (NCI).

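Dose response: 5 concentrations. Exposure: 48 h. Format: 96-well plates. Endpoint: linear interpolation; highest concentration if not reached. GI50 marks 50% less growth. The concentration for full growth arrest is given as TGI.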 Some results are limits rather than exact numbers.

Some test systems named below: HCT-116 colon; CAKI-1 renal; UACC-257 melanoma; NCI-H460 lung; RXF 393 renal; U251 CNS; UO-31 renal; SN12C renal; OVCAR-8 ovarian; SK-OV-3 ovarian.
Common to all, as to assay: inhibition of tumour cell growth, NCI panel, 48 h

As to `COc1ccc2[nH]c3c4[nH]c5ccc(OC)cc5c4c4c(c3c2c1)C(=O)NC4=O`, the GI50 in the assay on HCT-116 colon is > 11 µM; with CAKI-1 renal, 1.77 µM; in the assay with UACC-257 melanoma, > 25 µM; in the assay with NCI-H460 lung, > 10.3 µM; with U251 CNS, > 8.42 µM; with UO-31 renal, 0.654 µM. Besides, the figures for the GI50 in the assay on SN12C renal, in the assay with OVCAR-8 ovarian and in the assay on SK-OV-3 ovarian were 1.19 µM, > 13.2 µM and > 25 µM, respectively. In addition, the TGI was > 25 µM in the assay on HCT-116 colon; > 25 µM with CAKI-1 renal; > 25 µM in the assay on UACC-257 melanoma; > 25 µM in the assay on NCI-H460 lung; > 15.4 µM in the assay on RXF 393 renal; > 25 µM in the assay with U251 CNS. In addition, the TGI in the assay on UO-31 renal, with SN12C renal, with OVCAR-8 ovarian and in the assay with SK-OV-3 ovarian was > 25 µM each time.
In the case of `Cc1[nH]c(=O)nc2[nH][nH]c(=O)c12`, the TGI with HCT-116 colon, in the assay on CAKI-1 renal, with NCI-H460 lung, in the assay on RXF 393 renal, in the assay with U251 CNS and in the assay with SN12C renal was > 100 µM each time. Besides, the TGI with OVCAR-8 ovarian and with SK-OV-3 ovarian was > 100 µM throughout.
On to `CN1CCc2nc(N)nc(-c3nc(N)nc4c3CN(C)CC4)c2C1`, for which the TGI with HCT-116 colon, with CAKI-1 renal, with UACC-257 melanoma, in the assay on NCI-H460 lung, in the assay with RXF 393 renal and in the assay with U251 CNS was > 100 µM each time. Also, the TGI with UO-31 renal, in the assay with SN12C renal, in the assay on OVCAR-8 ovarian and in the assay on SK-OV-3 ovarian was > 100 µM in each case.
Turning to `O=C1C2C3C=C4c5ccccc5N(c5ccccc5)C4(C2C(=O)N1c1ccc([N+](=O)[O-])cc1)[C@H]1C(=O)N(c2ccc([N+](=O)[O-])cc2)C(=O)[C@@H]31` (stereo not given in full), the TGI with HCT-116 colon, with CAKI-1 renal, with UACC-257 melanoma, in the assay on NCI-H460 lung, in the assay on RXF 393 renal and in the assay with U251 CNS was > 100 µM in each case. Moreover, the TGI in the assay with UO-31 renal, with SN12C renal, in the assay on OVCAR-8 ovarian and in the assay with SK-OV-3 ovarian was > 100 µM each time.
For `Nc1nc(Nc2cccnc2)sc1C(=O)c1ccccc1F`, the GI50 is 2.51 µM in the assay on HCT-116 colon; 1.94 µM in the assay with CAKI-1 renal; 4.29 µM with UACC-257 melanoma; 2.57 µM in the assay on NCI-H460 lung; 1.9 µM in the assay on RXF 393 renal; 2.71 µM in the assay on U251 CNS. The GI50 is 2.45 µM in the assay with UO-31 renal, 3.02 µM with SN12C renal, 3.9 µM in the assay on OVCAR-8 ovarian and 15.7 µM with SK-OV-3 ovarian. In addition, the TGI is > 100 µM in the assay with HCT-116 colon; 6.86 µM in the assay with CAKI-1 renal; 40.1 µM in the assay with UACC-257 melanoma; 17.9 µM with NCI-H460 lung; 4.39 µM in the assay with RXF 393 renal; > 100 µM in the assay with U251 CNS. Moreover, the TGI is > 26.5 µM in the assay with UO-31 renal, > 100 µM with SN12C renal, > 100 µM with OVCAR-8 ovarian and > 100 µM in the assay with SK-OV-3 ovarian.
With `Clc1cc(Cl)c2ns[s+]c2c1Cl`, the TGI in the assay on HCT-116 colon, with CAKI-1 renal, with UACC-257 melanoma, in the assay with NCI-H460 lung, in the assay on RXF 393 renal and in the assay with U251 CNS was > 100 µM each time. For the same molecule, the TGI with UO-31 renal, in the assay on SN12C renal, in the assay on OVCAR-8 ovarian and in the assay with SK-OV-3 ovarian was > 100 µM throughout.
In the case of `CCc1nc(N)nc(N)c1-c1ccc(NC)c([N+](=O)[O-])c1`, the TGI in the assay on HCT-116 colon is > 100 µM; with CAKI-1 renal, > 79 µM; in the assay with UACC-257 melanoma, > 100 µM; with NCI-H460 lung it was > 100 µM; in the assay on RXF 393 renal, > 93.3 µM; in the assay with U251 CNS it was > 100 µM. Also, the TGI with UO-31 renal, with SN12C renal, in the assay with OVCAR-8 ovarian and in the assay on SK-OV-3 ovarian was > 100 µM each time.
In the case of `COc1ccc(/C=C/c2c(C(=O)/C=C/c3ccccc3)c(C)nc3ccccc23)cc1`, the GI50 with HCT-116 colon was 1.03 µM; with CAKI-1 renal it was 1.41 µM; in the assay with UACC-257 melanoma, 1.7 µM; in the assay on RXF 393 renal, 1.63 µM; in the assay with U251 CNS it was 1.61 µM; in the assay on UO-31 renal, 1.28 µM. Further, the values for the GI50 in the assay on SN12C renal, in the assay on OVCAR-8 ovarian and with SK-OV-3 ovarian were 2.05 µM, 1.75 µM and 3.13 µM, respectively. In addition, the TGI with HCT-116 colon is 2.6 µM; with CAKI-1 renal, 2.82 µM; in the assay on UACC-257 melanoma, 3.21 µM; in the assay with RXF 393 renal, 3.04 µM; with U251 CNS, 2.96 µM; with UO-31 renal, 2.54 µM. The figures for the TGI with SN12C renal, in the assay on OVCAR-8 ovarian and with SK-OV-3 ovarian were 4.63 µM, 4.1 µM and 9.54 µM, respectively.
On to `CN(C)CCNc1ccc(CO)c2oc3ccc(O)cc3c(=O)c12`, for which the TGI was 52.2 µM in the assay on HCT-116 colon; > 100 µM with CAKI-1 renal; 17.4 µM in the assay with UACC-257 melanoma; 17.4 µM in the assay with NCI-H460 lung; 28.4 µM with RXF 393 renal; 45.7 µM in the assay on U251 CNS. Besides, the TGI was 31.3 µM in the assay with UO-31 renal, > 66.3 µM in the assay with SN12C renal, 14.4 µM in the assay on OVCAR-8 ovarian and 37.4 µM in the assay on SK-OV-3 ovarian.
Turning to `O=C(/C=C/c1ccc(Cl)c(Cl)c1)c1ccc2ccccc2c1`, the TGI in the assay on HCT-116 colon, in the assay with CAKI-1 renal, with UACC-257 melanoma, in the assay with NCI-H460 lung, in the assay with RXF 393 renal and in the assay on U251 CNS was > 100 µM throughout. Moreover, the TGI with UO-31 renal is > 100 µM; in the assay on SN12C renal it was 71.6 µM; in the assay on OVCAR-8 ovarian, > 100 µM; with SK-OV-3 ovarian, > 100 µM.
As to `COc1c2c(cc3c1OCO3)[C@]13C=C[C@H](OC)C[C@H]1N(C2)CC3O` (stereo not given in full), the TGI in the assay on HCT-116 colon, with CAKI-1 renal, in the assay on UACC-257 melanoma, with NCI-H460 lung, with RXF 393 renal and in the assay with U251 CNS was > 100 µM each time. In addition, the TGI with UO-31 renal, in the assay on SN12C renal, with OVCAR-8 ovarian and with SK-OV-3 ovarian was > 100 µM in each case.
